In patent US9134325B2, “Resistance biomarkers for HDAC inhibitors” (Celgene Corporation, priority 2012, dated 2015):
pIC50: −log10 of the molar value. Values joined by “and” are separate entries in the source; they are usually repeats but may differ in a detail not shown here. Equal entries are not always repeated.

How the values were obtained:
class 1 HDACs 1 and 2 = conditions: data from Bradner et al., FIG. 6; cited from earlier work
SKOV3 TSPYL5 KD cells = assay: Cell growth assay (Cell Titer-Glo) in SKOV3 cells expressing TSPYL5 shRNA; assay type: cell-based
Protocol: (§1) Sensitivity of cells to HDAC inhibitor treatment is expressed as their S-value (S), which is a dimensionless compound value generated by adding the values of IC50 and the growth rate (GR) at the maximum drug concentration used to determine the IC50. The term (maximum drug concentration/200) is added in the equation below to achieve equal weighting of the S-value for IC50 and GR. S=IC50+(GR+100)×(maximum drug concentration/200) See FIG. 1 for an example of an S value calculation and explanation of GR.
(§2) To determine cell growth IC50 and GR at a given drug concentration, growth was plotted against drug concentration as a percentage of the number of cells present at the beginning of the experiment. Cells were plated in 96-well plates and allowed to attach and grow overnight. The following day, the cells were treated with serial dilutions of test compound. The viable cells were measured at day 0 (24 hours after plating) and day 3 (72 hours after adding the tested compound) using Cell Titer-Glo. Growth was calculated compared to day 0.
The plot generated two key data, the IC50 value and the % growth at the highest tested compound concentration (GR). […]
Effect of knocking down TSPYL5 expression using shRNA on IC50, GR and S values of romidepsin treatment. […] Knockdown of TSPYL5 in SKOV3 TSPYL5 KD cells was verified using western blot and quantitative PCR. […]

SKOV3 NS cells = assay: Cell growth assay (Cell Titer-Glo) in SKOV3 cells expressing non-silencing control shRNA; assay type: cell-based; conditions: for pIC50: romidepsin, 5 independent experiments
Protocol: as §1, §2
(§3) The plot generated two key data, the IC50 value and the % growth at the highest tested compound concentration (GR). The highest concentration tested for romidepsin was 1000 nM.
Effect of knocking down TSPYL5 expression using shRNA on IC50, GR and S values of romidepsin treatment. SKOV3 cells expressing either TSPYL5 shRNA (SKOV3 TSPYL5 KD) or non-silencing control shRNA (SKOV3 NS) were created using lentiviral infection. Knockdown of TSPYL5 in SKOV3 TSPYL5 KD cells was verified using western blot and quantitative PCR. Expression of TSPYL5 in these cells was reduced by 70%. After selection of stable pools with puromycin, cells were treated with varying concentrations of romidepsin for determination of IC50, GR and S value. Data from 5 independent experiments are shown. SKOV3 TSPYL5 KD cells have lower IC50s, show […] growth rate (GR) and have thus smaller S values than SKOV3 NS cells, meaning these cells are more sensitive to treatment with romidepsin. The data are plotted in FIG. 5. Differences between the 2 lines are significant (paired t test).

cell line panel = assay: Cell line panel viability screen (Cell Titer-Glo), S-value; assay type: cell-based
Protocol: as §1, §2, §3
The IC50s in these experiments could range from 0-1000 nM. […] Growth at the highest drug concentration tested ranged from −100 to +100. For the calculation of the S-Value, 100 was added to the numerical value of the observed growth, so that only positive numbers were generated (after adding 100, the range was from 0-200). Since IC50s and growth at the maximum drug concentration tested have different numerical ranges (0-1000 as compared to 0-200), the value for growth inhibition was multiplied by the maximum drug concentration used/200. This means that in the example given, both IC50 and GR could contribute values of 0-1000 to the S-value.
A cell line panel viability screen was used to compare the effects of a 6 hour and 72 hour treatment with romidepsin across a wide variety of cell lines. […] The S-Value was computed for the 6 h treatment and ranged from 5 for the most sensitive cell lines to 2000 for the most resistant cell lines. To identify genes whose expression correlated with sensitivity to HDAC inhibitor treatment, we applied two way ANOVA to select genes that were correlated with sensitivity. […] The most overexpressed gene in the resistant subgroup, ABCB1 (Res/Sen=29.6) is known to cause resistance to romidepsin treatment. This approach identified novel genes that correlated with resistance and/or sensitivity to the HDAC inhibitors but not tissue origin.
A cell line panel viability screen was used to compare the effects of romidepsin across a wide variety of cell lines and is shown in FIG. 3.

[1] = test system: primary human tumors propagated in mice; assay: Clonogenic two-layer soft agar assay of primary patient tumor explants; assay type: cell-based; conditions: IC50 of clonogenic assay against TSPYL5 expression, FIG. 4
Protocol: Primary human tumors were propagated in mice. Tumors were dissociated and their sensitivity to romidepsin was tested using a clonogenic assay.
The clonogenic assay was performed in a 24-well format according to a modified two-layer soft agar assay introduced by Hamburger & Salmon (Hamburger A W, Salmon S E. Primary bioassay of human tumor stem cells. Science 197:461 (1977)). Briefly, cells were seeded on a bottom layer of growth medium supplemented with 0.4% (w/v) agar. Cells were added in 0.2 ml of the same medium supplemented with 0.4% (w/v) agar. Test compounds were applied diluted in culture medium. Cultures were incubated at 37° C. and 7.5% CO2 in a humidified atmosphere for up to 21 days. After 4-21 days, colonies were counted and drug effect was expressed as percent colony formations compared to untreated controls.

HDF TSPYL5 KD cells = assay: Cell growth assay in human dermal fibroblasts with TSPYL5 knockdown; assay type: cell-based; conditions: HDF TSPYL5 KD versus HDF NS, FIG. 8
Source text: FIG. 8 depicts the effect of knockdown of TSPYL5 expression on sensitivity of HDF cells to romidepsin using shRNA, as measured by the effect of romidepsin treatment on IC50 (Panel A), growth rate (GR) (Panel B) and S value (Panel C). Sensitivity of TSPYL5 knockdown cells to romidepsin is increased as measured by S value and growth rate. HDF cells expressing either TSPYL5 shRNA (HDF TSPYL5 KD) or non-silencing control shRNA (HDF NS) were created using lentiviral infection. Knockdown of TSPYL5 in HDF TSPYL5 KD cells was verified using western blot and quantitative PCR. Expression of TSPYL5 in these cells was reduced by >70%. After selection of stable pools with puromycen, cells were treated with varying concentrations of romidepsin for determination of IC50, GR and S value. The data shown are means and standard deviations from 8 independent experiments. Panel A: Romidepsin IC50s for HDF TSPYL5 KD cells and HDF NS cells. Panel B: Romidepsin GR for HDF TSPYL5 KD cells and HDF NS cells. […]
To determine cell growth IC50 and GR at a given drug concentration, growth was plotted against drug concentration as a percentage of the number of cells present at the beginning of the experiment. […] The viable cells were measured at day 0 (24 hours after plating) and day 3 (72 hours after adding the tested compound) using Cell Titer-Glo. Growth was calculated compared to day 0.

class 2 HDAC 6 = molecular target: T1, class 2 HDAC 6 (Homo sapiens, UniProt Q9UBN7); conditions: data from Bradner et al., FIG. 6; cited from earlier work
T1 sequence (Q9UBN7 1-1215): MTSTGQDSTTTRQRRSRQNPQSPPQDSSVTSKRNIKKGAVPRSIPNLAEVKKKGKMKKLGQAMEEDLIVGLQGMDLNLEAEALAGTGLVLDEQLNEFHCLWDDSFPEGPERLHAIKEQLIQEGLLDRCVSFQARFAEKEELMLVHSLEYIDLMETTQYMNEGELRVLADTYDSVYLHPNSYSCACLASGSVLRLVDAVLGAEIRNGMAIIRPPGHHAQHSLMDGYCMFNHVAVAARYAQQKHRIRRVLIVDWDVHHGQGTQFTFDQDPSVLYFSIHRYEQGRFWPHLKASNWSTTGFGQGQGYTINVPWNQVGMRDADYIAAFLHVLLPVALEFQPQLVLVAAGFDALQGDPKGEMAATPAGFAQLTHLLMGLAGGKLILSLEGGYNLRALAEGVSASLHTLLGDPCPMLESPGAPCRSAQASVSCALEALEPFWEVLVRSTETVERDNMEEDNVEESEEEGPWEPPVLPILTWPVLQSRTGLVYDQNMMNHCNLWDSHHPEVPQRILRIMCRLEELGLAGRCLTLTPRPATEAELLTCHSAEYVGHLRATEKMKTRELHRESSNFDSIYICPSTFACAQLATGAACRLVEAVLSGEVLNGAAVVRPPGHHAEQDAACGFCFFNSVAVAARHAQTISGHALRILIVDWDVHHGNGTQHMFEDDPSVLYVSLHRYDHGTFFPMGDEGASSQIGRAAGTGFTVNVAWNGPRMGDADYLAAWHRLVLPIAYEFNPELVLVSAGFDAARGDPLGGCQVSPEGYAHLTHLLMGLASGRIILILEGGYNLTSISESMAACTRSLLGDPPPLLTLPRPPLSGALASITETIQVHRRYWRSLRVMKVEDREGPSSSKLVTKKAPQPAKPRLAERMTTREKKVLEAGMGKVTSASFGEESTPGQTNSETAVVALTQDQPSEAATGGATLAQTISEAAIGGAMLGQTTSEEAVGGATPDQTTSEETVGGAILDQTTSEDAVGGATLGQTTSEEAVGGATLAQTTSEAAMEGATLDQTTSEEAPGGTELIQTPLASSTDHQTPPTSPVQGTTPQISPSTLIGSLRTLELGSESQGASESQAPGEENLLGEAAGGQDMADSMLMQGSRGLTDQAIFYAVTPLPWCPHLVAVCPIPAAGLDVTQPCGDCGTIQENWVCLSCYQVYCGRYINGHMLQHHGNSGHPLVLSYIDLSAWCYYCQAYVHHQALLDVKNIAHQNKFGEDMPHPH

SMILES | Inhibition of class 1 HDACs 1 and 2 (class 1 HDACs 1 and 2) | S value (SKOV3 TSPYL5 KD cells; S=IC50+(GR+100)×(maximum drug concentration/200)) | GR (growth at the highest tested concentration) (SKOV3 TSPYL5 KD cells; highest romidepsin concentration 1000 nM, relative to day 0) | pIC50 (SKOV3 NS cells; Homo sapiens, SK-OV-3, SKOV3 NS (non-silencing control shRNA)) | pIC50 (SKOV3 NS cells; SKOV3 NS (non-silencing control shRNA)) | S value (SKOV3 NS cells; SKOV3 NS, S=IC50+(GR+100)×(maximum drug concentration/200)) | Sensitivity by tissue of origin (cell line panel; 6 h drug treatment, S value, FIG. 2B) | S-value across cell lines (cell line panel; 6 h drug treatment, most sensitive to most resistant cell lines) | Sensitivity of cell lines (cell line panel; 72 hour treatment) | Sensitivity of cell lines expressing high levels of TSPYL5 (cell line panel; S value against TSPYL5 gene expression, FIG. 3) | pIC50 (cell line panel; read-out: IC50 of cell growth) | Sensitivity of primary tumors with high TSPYL5 expression [1] | Effect of TSPYL5 knockdown on sensitivity of HDF cells (HDF TSPYL5 KD cells) | Inhibition of class 2 HDAC 6 (class 2 HDAC 6)
Nc1ccccc1NC(=O)c1ccc(CNC(=O)OCc2cccnc2)cc1 [entinostat] | inhibit | – | – | – | – | – | – | – | – | – | – | – | – | –
C/C=C1\NC(=O)[C@H]2CSSCC/C=C/[C@H](CC(=O)N[C@H](C(C)C)C(=O)N2)OC(=O)[C@H](C(C)C)NC1=O [romidepsin] | inhibit | 156 and 115 and 105 and 112 and 135 | −92.5% and −88.6% and −93.2% and −86.1% and −84.3% | 6.85 | 6.87 and 6.86 and 7.01 and 6.79 | 291 and 253 and 256 and 230 and 243 | blood cell lines show the greatest sensitivity | 4-2000 | majority of the tested cell lines showed sensitivity | no cell line expressing high levels of TSPYL5 was sensitive | 7.01 | resistant | increases sensitivity | –
O=C(CCCCCCC(=O)Nc1ccccc1)NO [vorinostat] | – | – | – | – | – | – | – | – | – | – | – | – | – | inhibit
